The term Kd denotes the free concentration of one partner at which half of the binding sites on the other are occupied at equilibrium, for simple one-to-one binding. Read a low Kd as higher affinity.

One assay has as its target T1, Endothelin-1 receptor (Rattus norvegicus, UniProt P26684).
T1 sequence (P26684 whole entry): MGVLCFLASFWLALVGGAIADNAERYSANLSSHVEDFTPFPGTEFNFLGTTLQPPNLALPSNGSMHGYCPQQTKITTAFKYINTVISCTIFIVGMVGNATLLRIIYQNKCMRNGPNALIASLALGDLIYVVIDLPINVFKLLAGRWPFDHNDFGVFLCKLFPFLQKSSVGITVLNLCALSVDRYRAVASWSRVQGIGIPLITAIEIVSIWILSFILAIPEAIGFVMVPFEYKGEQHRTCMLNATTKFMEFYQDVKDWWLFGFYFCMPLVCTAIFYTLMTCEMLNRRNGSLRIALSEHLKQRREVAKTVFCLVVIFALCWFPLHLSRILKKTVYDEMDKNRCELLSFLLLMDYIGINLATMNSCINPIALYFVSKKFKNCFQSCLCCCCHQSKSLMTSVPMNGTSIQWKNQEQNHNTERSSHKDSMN
Kind of assay: Binding affinity towards Endothelin A receptor in A10 rat thoracic aorta smooth muscle cells using [125I]ET1 as radioligand.

For a further assay, the species on record is Oryctolagus cuniculus. Kind of assay: Percent of endothelin-1 induced contraction of carotid arteries isolated from New Zealand white rabbits, tested at 1 uM concentration of compound. Format: functional.

Positions of bridges follow the written chain, without caps; N, C: chain ends. Residues, ends and D or L forms follow the SMILES beside them. Some results are limits rather than exact numbers.

At Endothelin-1 receptor, `CC[C@H](C)[C@H](NC(=O)[C@H](CC(=O)O)NC(=O)[C@H](CC(C)C)NC(=O)[C@H](Cc1cnc[nH]1)NC(=O)[C@@H]1CSSC[C@H](N)C(=O)N[C@@H](CO)C(=O)N[C@H]2CSSC[C@H](NC(=O)[C@H](C)NC(=O)[C@H](CCCCN)NC(=O)[C@H](CC(=O)O)NC(=O)[C@H](CCSC)NC(=O)[C@H](CC(C)C)NC(=O)[C@H](CO)NC(=O)[C@H](CO)NC2=O)C(=O)N[C@@H](C(C)C)C(=O)N[C@@H](Cc2ccc(O)cc2)C(=O)N[C@@H](Cc2ccccc2)C(=O)N1)C(=O)N[C@H](C(=O)N[C@@H](Cc1c[nH]c2ccccc12)C(=O)O)[C@@H](C)CC` (H-CSCSSLMDKACVYFCHLDIIW-OH; disulfide 1-15, 3-11) yielded a Kd of 188 nM.
The compound `CC[C@H](C)[C@H](NC(=O)[C@H](CC(=O)O)NC(=O)[C@H](CC(C)C)NC(=O)[C@H](Cc1c[nH]cn1)NC(=O)[C@@H]1CSSC[C@H](NC(C)=O)C(=O)N[C@@H](CO)C(=O)N[C@H]2CSSC[C@H](NC(=O)[C@H](CCC(=O)O)NC(=O)[C@H](CCCCN)NC(=O)[C@H](CC(=O)O)NC(=O)[C@H](CCSC)NC(=O)[C@H](CC(C)C)NC(=O)[C@H](CO)NC(=O)[C@H](CO)NC2=O)C(=O)N[C@@H](C(C)C)C(=O)N[C@@H](Cc2ccc(O)cc2)C(=O)N[C@@H](Cc2ccccc2)C(=O)N1)C(=O)N[C@H](C(=O)N[C@@H](Cc1c[nH]c2ccccc12)C(=O)O)[C@@H](C)CC` registered a Contraction in the assay filed under Oryctolagus cuniculus of 36%.
Same read-out and setting: the figure for `CC[C@H](C)[C@H](NC(=O)[C@H](CC(=O)O)NC(=O)[C@H](CC(C)C)NC(=O)[C@H](Cc1c[nH]cn1)NC(=O)[C@@H]1CSSC[C@H](N)C(=O)N[C@@H](CO)C(=O)N[C@H]2CSSC[C@H](NC(=O)[C@H](CCC(=O)O)NC(=O)[C@H](CCCCN)NC(=O)[C@H](CC(=O)O)NC(=O)[C@H](CCSC)NC(=O)[C@H](CC(C)C)NC(=O)[C@H](CO)NC(=O)[C@H](CO)NC2=O)C(=O)N[C@@H](C(C)C)C(=O)N[C@@H](Cc2ccc(O)cc2)C(=O)N[C@@H](Cc2ccccc2)C(=O)N1)C(=O)N[C@H](C(=O)N[C@@H](C)C(=O)O)[C@@H](C)CC` (H-CSCSSLMDKECVYFCHLDIIA-OH; disulfide 1-15, 3-11) [listing 1 of 2 here] is 0%.
The compound `CC[C@H](C)[C@H](NC(=O)[C@H](CC(=O)O)NC(=O)[C@H](CC(C)C)NC(=O)[C@H](Cc1c[nH]cn1)NC(=O)[C@@H]1CSSC[C@H](N)C(=O)N[C@@H](CO)C(=O)N[C@H]2CSSC[C@H](NC(=O)[C@H](CCC(=O)O)NC(=O)[C@H](CCCCN)NC(=O)[C@H](C)NC(=O)[C@H](CCSC)NC(=O)[C@H](CC(C)C)NC(=O)[C@H](CO)NC(=O)[C@H](CO)NC2=O)C(=O)N[C@@H](C(C)C)C(=O)N[C@@H](Cc2ccc(O)cc2)C(=O)N[C@@H](Cc2ccccc2)C(=O)N1)C(=O)N[C@H](C(=O)N[C@@H](Cc1c[nH]c2ccccc12)C(=O)O)[C@@H](C)CC` (H-CSCSSLMAKECVYFCHLDIIW-OH; disulfide 1-15, 3-11) [listing 1 of 2 here] came in with a Kd on Endothelin-1 receptor of 3070 nM.
Consider `CC[C@H](C)[C@H](NC(=O)[C@H](CC(=O)O)NC(=O)[C@H](CC(C)C)NC(=O)[C@H](Cc1c[nH]cn1)NC(=O)[C@@H]1CSSC[C@H](N)C(=O)N[C@@H](CO)C(=O)N[C@H]2CSSC[C@H](NC(=O)[C@H](CCC(=O)O)NC(=O)[C@H](CCCCN)NC(=O)[C@H](CC(=O)O)NC(=O)[C@H](CCSC)NC(=O)[C@H](CC(C)C)NC(=O)[C@H](CO)NC(=O)[C@H](CO)NC2=O)C(=O)N[C@@H](C(C)C)C(=O)N[C@@H](Cc2ccc(O)cc2)C(=O)N[C@@H](Cc2ccccc2)C(=O)N1)C(=O)N[C@H](C(=O)N[C@@H](C)C(=O)O)[C@@H](C)CC` (H-CSCSSLMDKECVYFCHLDIIA-OH; disulfide 1-15, 3-11) [listing 2 of 2 here], for which the Kd at Endothelin-1 receptor is greater than 20000 nM.
As for `CC[C@H](C)[C@H](NC(=O)[C@H](CC(=O)O)NC(=O)[C@H](CC(C)C)NC(=O)[C@H](Cc1c[nH]cn1)NC(=O)[C@@H]1CSSC[C@H](N)C(=O)N[C@@H](CO)C(=O)N[C@H]2CSSC[C@H](NC(=O)[C@H](CCC(=O)O)NC(=O)[C@H](CCCCN)NC(=O)[C@H](C)NC(=O)[C@H](CCSC)NC(=O)[C@H](CC(C)C)NC(=O)[C@H](CO)NC(=O)[C@H](CO)NC2=O)C(=O)N[C@@H](C(C)C)C(=O)N[C@@H](Cc2ccc(O)cc2)C(=O)N[C@@H](Cc2ccccc2)C(=O)N1)C(=O)N[C@H](C(=O)N[C@@H](Cc1c[nH]c2ccccc12)C(=O)O)[C@@H](C)CC` (H-CSCSSLMAKECVYFCHLDIIW-OH; disulfide 1-15, 3-11) [listing 2 of 2 here], the Contraction in the assay listed under Oryctolagus cuniculus is 60%.
For the compound `CC[C@H](C)[C@H](NC(=O)[C@H](CC(=O)O)NC(=O)[C@H](CC(C)C)NC(=O)[C@H](Cc1c[nH]cn1)NC(=O)[C@@H]1CSSC[C@H](N)C(=O)N[C@@H](CO)C(=O)N[C@H]2CSSC[C@H](NC(=O)[C@H](CCC(=O)O)NC(=O)[C@H](CCCCN)NC(=O)[C@H](CC(=O)O)NC(=O)[C@H](CCSC)NC(=O)[C@H](CC(C)C)NC(=O)[C@H](CO)NC(=O)[C@H](CO)NC2=O)C(=O)N[C@@H](C(C)C)C(=O)N[C@@H](Cc2ccc(O)cc2)C(=O)N[C@@H](Cc2ccccc2)C(=O)N1)C(=O)N[C@@H](C)C(=O)N[C@@H](Cc1c[nH]c2ccccc12)C(=O)O` (H-CSCSSLMDKECVYFCHLDIAW-OH; disulfide 1-15, 3-11), in the assay listed under Oryctolagus cuniculus, the Contraction was found to be 37%.
As for `CC[C@H](C)[C@H](NC(=O)[C@H](CC(=O)O)NC(=O)[C@H](C)NC(=O)[C@H](Cc1c[nH]cn1)NC(=O)[C@@H]1CSSC[C@H](N)C(=O)N[C@@H](CO)C(=O)N[C@H]2CSSC[C@H](NC(=O)[C@H](CCC(=O)O)NC(=O)[C@H](CCCCN)NC(=O)[C@H](CC(=O)O)NC(=O)[C@H](CCSC)NC(=O)[C@H](CC(C)C)NC(=O)[C@H](CO)NC(=O)[C@H](CO)NC2=O)C(=O)N[C@@H](C(C)C)C(=O)N[C@@H](Cc2ccc(O)cc2)C(=O)N[C@@H](Cc2ccccc2)C(=O)N1)C(=O)N[C@H](C(=O)N[C@@H](Cc1c[nH]c2ccccc12)C(=O)O)[C@@H](C)CC` (H-CSCSSLMDKECVYFCHADIIW-OH; disulfide 1-15, 3-11), the Contraction in the assay listed under Oryctolagus cuniculus is reported as 0%.
The same measure, in the same setting: the result for `CC[C@H](C)[C@H](NC(=O)[C@H](CC(=O)O)NC(=O)[C@H](CC(C)C)NC(=O)[C@H](Cc1c[nH]cn1)NC(=O)[C@@H]1CSSC[C@H](N)C(=O)N[C@@H](CO)C(=O)N[C@H]2CSSC[C@H](NC(=O)[C@H](CCC(=O)O)NC(=O)[C@H](CCCCN)NC(=O)[C@H](CC(=O)O)NC(=O)[C@H](CCSC)NC(=O)[C@H](CC(C)C)NC(=O)[C@H](CO)NC(=O)[C@H](CO)NC2=O)C(=O)N[C@@H](C(C)C)C(=O)N[C@@H](Cc2ccc(O)cc2)C(=O)N[C@@H](C)C(=O)N1)C(=O)N[C@H](C(=O)N[C@@H](Cc1c[nH]c2ccccc12)C(=O)O)[C@@H](C)CC` (H-CSCSSLMDKECVYACHLDIIW-OH; disulfide 1-15, 3-11) [listing 1 of 2 here] reads 6%; that for `CSCC[C@@H]1NC(=O)[C@H](CC(C)C)NC(=O)[C@H](CO)NC(=O)[C@H](CO)NC(=O)[C@@H]2CSSC[C@H](NC(=O)[C@H](CCC(=O)O)NC(=O)[C@H](CCCCN)NC(=O)[C@H](CC(=O)O)NC1=O)C(=O)N[C@@H](C(C)C)C(=O)N[C@@H](Cc1ccc(O)cc1)C(=O)N[C@@H](Cc1ccccc1)C(=O)N[C@H](C(=O)N[C@@H](Cc1c[nH]cn1)C(=O)N[C@@H](CC(C)C)C(=O)N[C@@H](CC(=O)O)C(=O)N[C@@H](C)C(=O)N[C@@H](C)C(=O)N[C@@H](Cc1c[nH]c3ccccc13)C(=O)O)CSSC[C@H](N)C(=O)N[C@@H](CO)C(=O)N2` (H-CSCSSLMDKECVYFCHLDAAW-OH; disulfide 1-15, 3-11), 50%.
Consider `CC[C@H](C)[C@H](NC(=O)[C@H](CC(=O)O)NC(=O)[C@H](CC(C)C)NC(=O)[C@H](Cc1c[nH]cn1)NC(=O)[C@@H]1CSSC[C@H](N)C(=O)N[C@@H](CO)C(=O)N[C@H]2CSSC[C@H](NC(=O)[C@H](C)NC(=O)[C@H](CCCCN)NC(=O)[C@H](CC(=O)O)NC(=O)[C@H](CCSC)NC(=O)[C@H](CC(C)C)NC(=O)[C@H](CO)NC(=O)[C@H](CO)NC2=O)C(=O)N[C@@H](C(C)C)C(=O)N[C@@H](Cc2ccc(O)cc2)C(=O)N[C@@H](Cc2ccccc2)C(=O)N1)C(=O)N[C@H](C(=O)N[C@@H](Cc1c[nH]c2ccccc12)C(=O)O)[C@@H](C)CC` (H-CSCSSLMDKACVYFCHLDIIW-OH; disulfide 1-15, 3-11), for which, in the assay listed under Oryctolagus cuniculus, the Contraction is 7%.
On Endothelin-1 receptor, `CC[C@H](C)[C@H](NC(=O)[C@H](CC(=O)O)NC(=O)[C@H](CC(C)C)NC(=O)[C@H](Cc1c[nH]cn1)NC(=O)[C@@H]1CSSC[C@H](N)C(=O)N[C@@H](CO)C(=O)N[C@H]2CSSC[C@H](NC(=O)[C@H](CCC(=O)O)NC(=O)[C@H](CCCCN)NC(=O)[C@H](CC(=O)O)NC(=O)[C@H](CCSC)NC(=O)[C@H](CC(C)C)NC(=O)[C@H](CO)NC(=O)[C@H](CO)NC2=O)C(=O)N[C@@H](C(C)C)C(=O)N[C@@H](Cc2ccc(O)cc2)C(=O)N[C@@H](C)C(=O)N1)C(=O)N[C@H](C(=O)N[C@@H](Cc1c[nH]c2ccccc12)C(=O)O)[C@@H](C)CC` (H-CSCSSLMDKECVYACHLDIIW-OH; disulfide 1-15, 3-11) [listing 2 of 2 here] showed a dissociation constant (Kd) of 646 nM. This counts as sub-micromolar.
`CC[C@H](C)[C@H](NC(=O)[C@H](C)NC(=O)[C@H](CC(C)C)NC(=O)[C@H](Cc1c[nH]cn1)NC(=O)[C@@H]1CSSC[C@H](N)C(=O)N[C@@H](CO)C(=O)N[C@H]2CSSC[C@H](NC(=O)[C@H](CCC(=O)O)NC(=O)[C@H](CCCCN)NC(=O)[C@H](CC(=O)O)NC(=O)[C@H](CCSC)NC(=O)[C@H](CC(C)C)NC(=O)[C@H](CO)NC(=O)[C@H](CO)NC2=O)C(=O)N[C@@H](C(C)C)C(=O)N[C@@H](Cc2ccc(O)cc2)C(=O)N[C@@H](Cc2ccccc2)C(=O)N1)C(=O)N[C@H](C(=O)N[C@@H](Cc1c[nH]c2ccccc12)C(=O)O)[C@@H](C)CC` (H-CSCSSLMDKECVYFCHLAIIW-OH; disulfide 1-15, 3-11): the Contraction in the assay filed under Oryctolagus cuniculus is 0%.

(Values after ChEMBL document CHEMBL1125940 (Bioorg Med Chem Lett, 1991).)
